*1 amine or outer side, *2 acyl side, *3 side chain or, on linkers, in order; H or OH if unused. Primed or numbered codes have the meaning given here. [ ]: non-standard residue; d: D form. The star is where a group is joined. C20 diacid = O=C(O)CCCCCCCCCCCCCCCCCCC(=O)*; γGlu = O=C(O)[C@H](CCC(=O)[*:2])N[*:1]; Iva = CC[C@](C)(N)C(=O)O; PEG2′ = not defined here
How the values were obtained:
[1] = test system: bleomycin induced pulmonary fibrosis; assay: Bleomycin (BLM) induced pulmonary fibrosis model in mice; format: in vivo, C57BL/6J mice; conditions: 150 μg/kg daily intraperitoneal, 14 days, FIG. 5; for degree of pulmonary fibrosis (H&E staining and Masson staining): compared with bleomycin control group; for fibronectin in pulmonary parenchyma (α-SMA and Collagen1 immunohistochemistry): compared with bleomycin group
Procedure: (§1) Molding method: 78 male C57BL/6J mice, 16-18 g in weight and 6-8 weeks old, provided by Laboratory Animal Center, Sun Yat-sen University, randomly divided into 13 groups: 1) normal control group (Normal), n=6; 2) sham-operated saline control group (Saline), n=6; 3) bleomycin model group (BLM), n=6; and 4) model treatment group: administration of 150 μg/kg series compounds to mice, 10 groups in total, n=6/group. On the 7th day after the operation of bleomycin induced pulmonary fibrosis in mice, mice in the model treatment group are treated with drugs (administration frequency: daily administration/150 μg/kg, intraperitoneal injection). Samples are taken 14 days after administration, and pathological observations are recorded.
(§2) The bleomycin (purchased from TCI Shanghai)) induced pulmonary fibrosis model manifests the following pathological features: bronchiectasis, hydropic degeneration of bronchial epithelial cells, obvious edema and widening of alveolar interstitium, and deposition of a large number of fibroblasts and collagen tissue. The alveolar structure almost completely disappears, filled with fibrous connective tissue, and accompanied by inflammatory cell infiltration. After 14 days of administration, the mice in the model treatment group are treated and sampled. Blood is taken from the retrobulbar vein for detection of serological indicators, and […] is taken for pathological analysis.
(§3) H&E staining: paraffin embedded tissue sections are taken and baked at 60° C. for 1 h. Dewaxing and hydration: xylene for 20 minutes→xylene for 20 minutes→absolute alcohol for 15 minutes→absolute alcohol for 15 minutes→95% alcohol for 10 minutes→90% alcohol for 5 minutes→80% alcohol for 5 minutes. Staining: hematoxylin for 7 minutes→rinsing with tap water→differentiation with 1% hydrochloric acid alcohol for 1 s→rinsing with tap water→eosin staining for 15 s-20 s→rinsing with tap water. Dehydration and transparency: 75% alcohol for 1 s→85% alcohol for 1 s→95% alcohol for 1 s→100% alcohol for 1 s→xylene for 1 s→xylene for 1 s. The sections are aired for 30 minutes and sealed with gum.
Masson staining: drying and dewaxing; mordanting; adding celestine blue staining solution for 2-3 min, and washing with water; adding Mayer hematoxylin staining solution and washing with water; differentiating with acid alcohol differentiation liquid for several seconds, and washing with tap water; adding ponceau magenta staining solution and washing with distilled water; treating with phosphomolybdic acid solution; adding aniline blue staining solution for 5 min; treating with weak acid solution for 2 min; dehydration and transparency, airing and sealing with gum.
Immunohistochemistry: drying sections, dewaxing, and then soaking in double distilled water for 5 minutes. […]

[2] = test system: CCl4 induced hepatic fibrosis; assay: Carbon tetrachloride (CCl4) induced hepatic fibrosis model in mice; format: in vivo, C57BL/6J mice; conditions: 100.0 μg/kg intraperitoneal, 3 weeks of administration; for aggregation of inflammatory cells in the liver (HE staining) / hepatic fibrosis of mice: FIG. 2; for expression of Collagen I in the liver (immunohistochemistry): FIG. 3; for collagen deposition in the liver (Sirius red staining): FIG. 4
Procedure: Molding method: 72 male C57BL/6J mice, male, 18-22 g in weight and 8 weeks old, provided by Laboratory Animal Center, Sun Yat-sen University, randomly divided into 12 groups: 1) control group (Oil)+saline, intraperitoneal injection, n=6; 2) model control group (CCl4)+saline, intraperitoneal injection, n=6; administration of CCl4 to mice once every three days for 6 weeks; 3) model administration group (CCl4)+100.0 μg/kg series of compounds (group 10), intraperitoneal injection, n=6/group. The mice in the control group are injected with corn oil at the same volume and frequency according to the administration volume of 20% CCl4 at the weight of 5.0 μL/g. Administration frequency: administration of CCl4 to mice once every three days for 6 weeks. After 3 weeks of administration of CCl4 to mice in the model administration group, peptide compounds 1, 5, 7, 11, 12, 13, 17, 18, 21 and 22 are administered for 3 weeks from the 4th week. CCl4 and Oil are purchased from Shanghai Aladdin Biochemical Technology Co., Ltd.
In the CCl4 induced hepatic fibrosis model, the manifestations are: inflammatory cell infiltration around the central vein area, hydropic degeneration of hepatic cells, and increased accumulation of collagen fibers in the portal area and the hepatic interlobular septum. After three weeks of administration, the mice are treated and sampled. Blood is taken from the retrobulbar vein for detection of serological indicators, and liver tissue is taken for pathological analysis.
as §3, with “Hematoxylin-eosin (H&E) staining: paraffin” for “H&E staining: paraffin”, “s→xylene for Is→xylene for 1” for “s→xylene for 1 s→xylene for 1”
Sirius red staining: drying and dewaxing; standing for 5.0 minutes in double distilled water; Sirius red staining for 60-80 minutes in a dark room; washing for 5 s with 0.5% glacial acetic acid; dehydration and transparency, sealing and taking photos.
Immunohistochemistry: drying sections, dewaxing, and then soaking in double distilled water for 5 minutes. Antigen retrieval: putting the shelf where pathological sections are placed into a beaker containing citric acid buffer (PH=6.0), and keeping it under high temperature and pressure for 15 minutes; taking out the beaker and letting it stand at room temperature until the temperature drops to the room temperature, then taking out the sections and putting them into 3.0% hydrogen peroxide for 10 minutes to block the endogenous peroxidase activity, and then washing them with PBS for three times, 5 minutes each time; sealing the tissues with 1.0% BSA for 1 h; removing 1.0% BSA, adding Collagen I antibody on the tissue according to the proportion recommended in the Description, and staying overnight at 4° C.; taking out the pathological sections next day, adding the second antibody with horseradish peroxidase after the room temperature is restored, incubating it at 37° C. for 60 minutes, and then use DAB (diaminobenzidine) ([…], USA) to develop color; and re-staining with hematoxylin staining solution, washing with tap water for 5 minutes, differentiating with 1% hydrochloric acid alcohol, then washing with tap water for 5 minutes again, dehydrating, airing, sealing, and taking photos (H&E staining solution and Sirius red staining solution are purchased from Sangon Biotech (Shanghai) Co., Ltd., and Collagen I antibody is purchased from CST Corporation).

TGF-β = assay: ELISA of TGFβ in serum of mice of the bleomycin model; format: in vivo, C57BL/6J mice; conditions: BLM mice, 150 μg/kg daily intraperitoneal, 14 days, FIG. 6-B
Procedure: as §1, §2
(§4) The occurrence and development of fibrotic diseases are related to TGF-β and MMP-9 induced EMT process. Matrix metalloproteinases (MMPs) are matrix degrading proteases that degrade all components of extracellular matrix. They participate in the pathophysiological process of pulmonary fibrosis, play an important role in the abnormal remodeling of extracellular matrix and destruction of basement membrane, and promote the recruitment of inflammatory cells and fibroblasts. The increased expression of MMP-9 in pulmonary fibrosis animal models and patients, higher than the normal MMP-9 level, may destroy normal tissue structure and increase the migration of inflammatory cells to the disease site. In order to further explore the inhibitory mechanism of polypeptide drugs on bleomycin induced pulmonary fibrosis, we detect the expression of TGFβ, MMP9 cell factors in serum of mice in each group by ELISA. […] We speculate that its mechanism should be related to TGF-β.

LX2 cells = assay: Activity evaluation in LX2 cell model (α-SMA protein expression); format: cell-based, human; conditions: 1.0 μM and 10.0 μM, 48 hours incubation, GAPDH internal reference, FIG. 1
Source text: In LX2 cell model (which can be directly used as the evaluation model of hepatic fibrosis cells in vitro, because LX2 cells are human liver activated stellate cells. The LX2 cells are purchased from China Center for Type Culture Collection of the Chinese Academy of Sciences, Shanghai, China), the anti-fibrosis activities of peptide compounds 1-25 are preliminarily screened, and the expression of the marker α-SMA protein of myofibroblast activation is detected. The peptide compounds 1-25 is subjected to cell incubation for 48 hours by using two concentrations (1.0 μM and 10.0 μM). The control group is given the same volume of Dulbecco's modified Eagle medium (DMEM) (purchased from Gibco in the United States), and GAPDH (purchased from TransGen Biotech) as the internal reference, α-actin (α-SMA) is a symbolic feature that distinguishes myoblast cells from myofibroblasts.

MMP9 = assay: ELISA of MMP9 in serum of mice of the bleomycin model; format: in vivo, C57BL/6J mice; conditions: BLM mice, 150 μg/kg daily intraperitoneal, 14 days, FIG. 6-A
Procedure: as §1, §2, §4

(PEG2-PEG2-γGlu-CO(CH2)18CO2H)-Val-Iva-Gly-Ser-Pro-Ser-Ala-Gln-Glu-Glu-Ala-Ser-Pro-Leu-NH2 ({C20 diacid-γGlu-PEG2′-PEG2′}-V[Iva]GSPSAQEEASPL-NH2) [Compound 11]
degree of pulmonary fibrosis (H&E staining and Masson staining) [1]: significantly reduced
fibronectin in pulmonary parenchyma (α-SMA and Collagen1 immunohistochemistry) [1]: significantly less than that in bleomycin group
aggregation of inflammatory cells in the liver (HE staining) [2]: significantly improved
hepatic fibrosis of mice [2]: significantly improved
expression of Collagen I in the liver (immunohistochemistry) [2]: significant therapeutic improvement
collagen deposition in the liver (Sirius red staining) [2]: significant therapeutic improvement
concentration of TGF-β in serum of mice (TGF-β): significantly reduce
inhibiting and improving the activity of α-SMA (expression of α-SMA protein) (LX2 cells): better effects on inhibiting and improving the activity of α-SMA
concentration of MMP9 in serum of mice (MMP9): significantly reduce

Compound 21: cyclic peptide compound, head-to-tail amide (cyclo(V[Iva]GSPSAQDEASPA); SMILES CC[C@]1(C)NC(=O)[C@H](C(C)C)NC(=O)[C@H](C)NC(=O)[C@@H]2CCCN2C(=O)[C@H](CO)NC(=O)[C@H](C)NC(=O)[C@H](CCC(=O)O)NC(=O)[C@H](CC(=O)O)NC(=O)[C@H](CCC(N)=O)NC(=O)[C@H](C)NC(=O)[C@H](CO)NC(=O)[C@@H]2CCCN2C(=O)[C@H](CO)NC(=O)CNC1=O)
degree of pulmonary fibrosis (H&E staining and Masson staining) [1]: significantly reduced
fibronectin in pulmonary parenchyma (α-SMA and Collagen1 immunohistochemistry) [1]: significantly less than that in bleomycin group
aggregation of inflammatory cells in the liver (HE staining) [2]: significantly improved
hepatic fibrosis of mice [2]: significantly improved
expression of Collagen I in the liver (immunohistochemistry) [2]: significant therapeutic improvement
collagen deposition in the liver (Sirius red staining) [2]: significant therapeutic improvement
concentration of TGF-β in serum of mice (TGF-β): significantly reduce
inhibiting and improving the activity of α-SMA (expression of α-SMA protein) (LX2 cells): better effects on inhibiting and improving the activity of α-SMA
concentration of MMP9 in serum of mice (MMP9): significantly reduce

Reference: US20240336653A1, “PEPTIDE COMPOUND TARGETING ELASTIN-DERIVED PEPTIDES AND USE THEREOF” (Shenzhen Turier Biotech Co., Ltd., priority 2020, published 2024)
